Test [1] concerns Abeta 1-42. In words: Cellular αLisa assay in SKNBE2 cells, Abeta 1-42. The test is classed as cell-based, human. Particulars: incubated for 18 hours; for IC50: Homo sapiens, SKNBE2, 18 h, read-out: Cellular αLisa assay in SKNBE2 cells Abeta 42 pIC50 (converted). In short, it runs like this: (§1)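 Secreted Abeta levels were measured by sandwich αLisa, pairing biotin-AbN/25 donor beads with Ab4G8 acceptor beads for total Abeta or cAb42/26 for Abeta 1-42, read at 615 nm after 650 nm excitation following 1 hour. Cells were SKNBE2 expressing wild-type hAPP695, exposed to compound for 18 hours.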

Test [2] has as its system Abeta total. In words: Cellular αLisa assay in SKNBE2 cells, Abeta total. The test is classed as cell-based, human. The note with it: incubated for 18 hours; for IC50: Homo sapiens, SKNBE2, 18 h, read-out: Cellular αLisa assay in SKNBE2 cells Abetatotal pIC50 (converted). In short, it runs like this: as §1
Test [3] addresses recombinant BACE1 protein (Homo sapiens, UniProt P56817). The test is described as follows: Biochemical FRET based assay. The note with it: recombinant BACE1 1 μg/ml, 120 minutes at room temperature, pH 5.0; for IC50: read-out: Biochemical FRET based assay pIC50 (converted). In short, it runs like this: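 Proteolysis was read as the rise in donor fluorescence (320 nm excitation, 405 nm emission) from T0 to T120, expressed in RFU. The reaction ran 120 minutes at room temperature at pH 5.0 in citrate buffer with 4% DMSO, using […] quenched Swedish APP peptide and 1 μg/ml BACE1.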

Chain of recombinant BACE1 protein (P56817 46-501): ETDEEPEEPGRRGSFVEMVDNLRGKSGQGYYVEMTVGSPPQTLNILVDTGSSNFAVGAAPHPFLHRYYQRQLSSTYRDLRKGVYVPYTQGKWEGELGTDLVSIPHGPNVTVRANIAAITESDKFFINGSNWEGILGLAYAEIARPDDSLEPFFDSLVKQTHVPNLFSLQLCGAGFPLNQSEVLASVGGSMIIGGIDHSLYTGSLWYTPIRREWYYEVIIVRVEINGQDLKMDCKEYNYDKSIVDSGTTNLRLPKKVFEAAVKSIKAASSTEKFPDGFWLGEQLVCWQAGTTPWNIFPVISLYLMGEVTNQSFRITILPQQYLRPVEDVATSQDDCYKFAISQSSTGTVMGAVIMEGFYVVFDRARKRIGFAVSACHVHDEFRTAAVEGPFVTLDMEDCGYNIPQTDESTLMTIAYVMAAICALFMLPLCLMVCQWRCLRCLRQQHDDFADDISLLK

Turning to `NC1=N[C@@](c2cc(NC(=O)c3ncc(Cl)cc3Cl)ccc2F)(C2CC2)[C@@H](F)OC1` [Compound 259], the IC50 in test [1] was 0.135 µM; in test [2] it was 0.126 µM; in test [3] it was 0.0851 µM.

Regarding `C[C@]1(c2cc(NC(=O)c3ncc(Cl)cc3F)ccc2F)N=C(N)CO[C@H]1C(F)(F)F` [Compound 260], the IC50 in test [1] is 0.00661 µM; in test [2], 0.00646 µM; in test [3], 0.0479 µM.

For `N#Cc1ccc(C(=O)Nc2ccc(F)c([C@@]3(C4CC4)N=C(N)CO[C@@]3(F)C(F)(F)F)c2)nc1` [Compound 262], the IC50 is 0.0692 µM in test [1], 0.0741 µM in test [2] and 0.0302 µM in test [3].

For `NC1=N[C@@](c2cc(NC(=O)c3cnc(OCC(F)(F)F)cn3)ccc2F)(C2CC2)[C@@H](F)OC1` [Compound 264], the IC50 in test [1] is 0.347 µM; in test [2] it was 0.316 µM; in test [3], 0.0912 µM.

In the case of `NC1=N[C@@](c2cccc(-c3cncnc3)c2)(C2CC2)[C@H](C(F)(F)F)OC1` [Compound 269], the IC50 in test [1] was 0.0589 µM; in test [2], 0.0575 µM; in test [3], 0.158 µM.

Turning to `NC1=N[C@@](c2cccc(-c3cncc(F)c3)c2)(C2CC2)[C@H](C(F)(F)F)OC1` [Compound 270], the IC50 in test [1] is 0.0468 µM; in test [2], 0.0479 µM; in test [3], 0.132 µM.

For `N#Cc1cncc(-c2ccc(F)c([C@@]3(C4CC4)N=C(N)CO[C@@]3(F)C(F)(F)F)c2)c1` [Compound 271], the IC50 in test [1] is > 10 µM; in test [2], > 10 µM; in test [3] it was > 30.2 µM.

On to `Cc1cc(Br)cnc1C(=O)Nc1cccc([C@@]2(C3CC3)N=C(N)CO[C@H]2F)c1` [Compound 272], for which the IC50 was 0.0363 µM in test [1], 0.0355 µM in test [2] and 0.0912 µM in test [3].

As for `NC1=N[C@@](c2cccc(NC(=O)c3cnc(OCC(F)(F)F)cn3)c2)(C2CC2)[C@H](F)OC1` [Compound 274], the IC50 in test [1] was 0.12 µM; in test [2] it was 0.12 µM; in test [3] it was 0.263 µM.

For the molecule `NC1=N[C@@](c2cccc(NC(=O)c3cnc(OCC(F)(F)F)cn3)c2)(C2CC2)[C@@H](F)OC1` [Compound 275], the IC50 was 0.0589 µM in test [1], 0.0562 µM in test [2] and 0.0617 µM in test [3].

Turning to `NC1=N[C@@](c2cccc(NC(=O)c3ncc(Cl)cc3Cl)c2)(C2CC2)[C@H](F)OC1` [Compound 276], the figures for the IC50 in test [1], in test [2] and in test [3] were 0.0417 µM, 0.0417 µM and 0.174 µM, respectively.

As for `N#Cc1ccc(C(=O)Nc2cccc([C@@]3(C4CC4)N=C(N)CO[C@H]3F)c2)nc1` [Compound 280], the IC50 in test [1] is 0.0589 µM; in test [2] it was 0.0575 µM; in test [3], 0.182 µM.

In the case of `CCC1(c2cc(NC(=O)c3cnc(OC)cn3)ccc2F)N=C(N)COC1F` (stereo not drawn) [Compound 281], the “Cellular αLisa assay in SKNBE2 cells Abeta 42 pIC50” value in test [1] turned out to be 7.3. The “Cellular αLisa assay in SKNBE2 cells Abetatotal pIC50” value in test [2] worked out at 7.34. In addition, the IC50 in test [3] was 0.0741 µM.

Take `CCC1(c2cc(NC(=O)c3cnc(OC)cn3)ccc2F)N=C(N)COC1F` (stereo not drawn) [Compound 282]: the “Cellular αLisa assay in SKNBE2 cells Abeta 42 pIC50” value in test [1] is reported as 6.56. Moreover, the “Cellular αLisa assay in SKNBE2 cells Abetatotal pIC50” value in test [2] was found to be 6.65. For the same molecule, the IC50 in test [3] was 0.891 µM.

As to `CCC1(c2cc(NC(=O)c3ncc(Cl)cc3F)ccc2F)N=C(N)COC1F` (stereo not drawn) [Compound 283], the IC50 was 0.0302 µM in test [1], 0.0245 µM in test [2] and 0.0676 µM in test [3].

Turning to `CCC1(c2cc(NC(=O)c3ncc(C#N)cc3Cl)ccc2F)N=C(N)COC1C(F)(F)F` (stereo not drawn) [Compound 284], the values for the IC50 in test [1], in test [2] and in test [3] were 0.0178 µM, 0.0174 µM and 0.0871 µM, respectively.

As for `CCC1(c2cc(NC(=O)c3cnc(OC)cn3)ccc2F)N=C(N)COC1C(F)(F)F` (stereo not drawn) [Compound 285], the IC50 was 0.0148 µM in test [1], 0.0158 µM in test [2] and 0.1 µM in test [3].

For the molecule `NC1=N[C@@](c2cccc(-c3cncnc3)c2)(C2CC2)[C@@H](C(F)(F)F)OC1` [Compound 286], the IC50 was 0.158 µM in test [1], 0.155 µM in test [2] and 0.851 µM in test [3].

Take `NC1=N[C@@](c2cccc(NC(=O)c3ncc(Cl)cc3F)c2)(C2CC2)[C@@H](C(F)(F)F)OC1` [Compound 287]: the IC50 is 0.0324 µM in test [1], 0.0275 µM in test [2] and 0.138 µM in test [3].

With `NC1=N[C@@](c2cccc(NC(=O)c3ncc(Cl)cc3F)c2)(C2CC2)[C@H](C(F)(F)F)OC1` [Compound 288], the IC50 in test [1] was 0.00776 µM; in test [2], 0.00741 µM; in test [3], 0.0331 µM.

Turning to `NC1=N[C@@](c2cccc(NC(=O)c3cnc(OCC(F)(F)F)cn3)c2)(C2CC2)[C@H](C(F)(F)F)OC1` [Compound 289], the IC50 in test [1] is 0.01 µM; in test [2], 0.0105 µM; in test [3] it was 0.0309 µM.

As for `N#Cc1cnc(C(=O)Nc2cccc([C@@]3(C4CC4)N=C(N)CO[C@@H]3C(F)(F)F)c2)c(Cl)c1` [Compound 290], the values for the IC50 in test [1], in test [2] and in test [3] were 0.0186 µM, 0.0178 µM and 0.0977 µM, respectively.

For `N#Cc1cnc(C(=O)Nc2cccc([C@@]3(C4CC4)N=C(N)CO[C@H]3C(F)(F)F)c2)c(Cl)c1` [Compound 291], the IC50 in test [1] is 0.00562 µM; in test [2] it was 0.0049 µM; in test [3], 0.0324 µM.

In the case of `CC#Cc1cncc(-c2ccc(F)c(C3(C4CC4)N=C(N)COC3F)c2)c1` (stereo not drawn) [Compound 292], in test [1], the “Cellular αLisa assay in SKNBE2 cells Abeta 42 pIC50” value is given as 5.98. Also, the “Cellular αLisa assay in SKNBE2 cells Abetatotal pIC50” value in test [2] came out at 6.17. In test [3], the “Biochemical FRET based assay pIC50” value was determined as 6.17.

As to `CC#Cc1cncc(-c2ccc(F)c([C@@]3(C4CC4)N=C(N)CO[C@H]3F)c2)c1` [Compound 293], the values for the IC50 in test [1], in test [2] and in test [3] were 1.86 µM, 1.55 µM and 1.38 µM, respectively.

For the molecule `NC1=N[C@@](c2cc(-c3cncc(Cl)c3)ccc2F)(C2CC2)[C@@H](F)OC1` [Compound 294], the values for the IC50 in test [1], in test [2] and in test [3] were 6.61 µM, 4.9 µM and 2.29 µM, respectively.

Take `NC1=NC(c2cc(-c3cncnc3)ccc2F)(C2CC2)C(F)OC1` (stereo not drawn) [Compound 296]: the “Cellular αLisa assay in SKNBE2 cells Abeta 42 pIC50” value in test [1] was <5. In addition, in test [2], the “Cellular αLisa assay in SKNBE2 cells Abetatotal pIC50” value was <5. For the same molecule, the “Biochemical FRET based assay pIC50” value in test [3] was 5.42.

On to `Cc1cc(Cl)cnc1C(=O)Nc1cccc([C@@]2(C3CC3)N=C(N)CO[C@@H]2F)c1` [Compound 297], for which the IC50 in test [1] was 0.0191 µM; in test [2], 0.0174 µM; in test [3], 0.0389 µM.

`Cc1cc(Cl)cnc1C(=O)Nc1cccc([C@@]2(C3CC3)N=C(N)CO[C@H]2F)c1` [Compound 298]: the IC50 in test [1] is 0.0617 µM; in test [2], 0.0589 µM; in test [3] it was 0.123 µM.

Regarding `CCC1(c2cc(NC(=O)c3cnc(OC)cn3)ccc2F)N=C(N)COC1(F)C(F)(F)F` (stereo not drawn) [Compound 300], the “Cellular αLisa assay in SKNBE2 cells Abeta 42 pIC50” value in test [1] worked out at 5.91. In addition, in test [2], the “Cellular αLisa assay in SKNBE2 cells Abetatotal pIC50” value amounted to 5.93. Besides, in test [3], the IC50 was 1.55 µM.

Take `CCC1(c2cc(-c3cncnc3)ccc2F)N=C(N)COC1(F)C(F)(F)F` (stereo not drawn) [Compound 302]: the “Cellular αLisa assay in SKNBE2 cells Abeta 42 pIC50” value in test [1] is listed as <5. Also, the “Cellular αLisa assay in SKNBE2 cells Abetatotal pIC50” value in test [2] was <5. Further, the IC50 in test [3] was > 30.2 µM.

In the case of `COc1ccc(C(=O)Nc2ccc(F)c([C@@]3(C)N=C(N)CO[C@]3(F)C(F)(F)F)c2)nc1` [Compound 304], the IC50 is 0.363 µM in test [1], 0.339 µM in test [2] and 0.589 µM in test [3].

As to `C[C@]1(c2cc(NC(=O)c3ncc(C#N)cc3Cl)ccc2F)N=C(N)CO[C@]1(F)C(F)(F)F` [Compound 306], the results for the IC50 in test [1], in test [2] and in test [3] were 0.00692 µM, 0.00741 µM and 0.0363 µM, respectively.

With `C[C@]1(c2cc(NC(=O)c3ncc(C#N)cc3Cl)ccc2F)N=C(N)CO[C@@]1(F)C(F)(F)F` [Compound 307], the IC50 in test [1] was 0.107 µM; in test [2], 0.0933 µM; in test [3] it was 0.2 µM.

For `C[C@]1(c2cc(NC(=O)c3ncc(C#N)cc3Cl)ccc2F)N=C(N)CO[C@H]1C(F)(F)F` [Compound 308], the IC50 in test [1] is 0.00631 µM; in test [2], 0.00617 µM; in test [3] it was 0.049 µM.

Regarding `N#Cc1cnc(C(=O)Nc2cccc([C@@]3(C4CC4)N=C(N)CO[C@H]3F)c2)c(Cl)c1` [Compound 309], the IC50 is 0.0741 µM in test [1], 0.0724 µM in test [2] and 0.219 µM in test [3].

In the case of `CCC1(c2cc(-c3cncc(C#N)c3)ccc2F)N=C(N)COC1C(F)(F)F` (stereo not drawn) [Compound 310], the IC50 in test [1] is 0.776 µM; in test [2] it was 0.617 µM; in test [3], 3.31 µM.

`N#Cc1cncc(-c2cccc([C@@]3(C4CC4)N=C(N)CO[C@@H]3F)c2)c1` [Compound 311]: the IC50 is 1.45 µM in test [1], 1.12 µM in test [2] and 1.38 µM in test [3].

On to `NC1=N[C@@](c2cc(-c3cncnc3)ccc2F)(C2CC2)[C@](F)(C(F)(F)F)OC1` [Compound 312], for which the IC50 was 3.24 µM in test [1], 2.82 µM in test [2] and 0.661 µM in test [3].

In the case of `Cc1cc(Br)cnc1C(=O)Nc1cccc([C@@]2(C3CC3)N=C(N)CO[C@@H]2F)c1` [Compound 313], the IC50 is 0.0178 µM in test [1], 0.0135 µM in test [2] and 0.0166 µM in test [3].
